Results published in patent publication US9504754B2, “Curcuminoid complexes with enhanced stability, solubility and/or bioavailability” (South Dakota Board of Regents, priority 2013, dated 2016).

Experiments:
[1] = without any solubility enhancement techniques; cited from earlier work
[2] = Aqueous solubility of curcumin at different pH (FIG. 6A/6B); type: physicochemical

aqueous solubility of curcumin (colour of solution) ([2]; pH 1.2): absence of soluble curcumin
aqueous solubility of curcumin (colour of solution) ([2]; pH 4.5): absence of soluble curcumin
aqueous solubility of curcumin (colour of solution) ([2]; pH 7.0): absence of soluble curcumin
aqueous solubility of curcumin (colour of solution) ([2]; pH 7.4): absence of soluble curcumin
SMILES: COc1cc(/C=C/C(=O)CC(=O)/C=C/c2ccc(O)c(OC)c2)ccc1O [free curcumin, (1E,6E)-1,7-bis(4-hydroxy-3-methoxyphenyl)-1,6-heptadiene-3,5-dione]
solubility in water [1]: less than 1 μg/ml
